According to PMC5562305, “Impact of novel palmitoylated prolactin-releasing peptide analogs on metabolic changes in mice with diet-induced obesity” (PLoS ONE, 2017):
Starred links: 1 amine or outer side, 2 acyl side, 3 side chain; linkers in the order of their positions; H or OH if unused. Residues, ends and D or L forms follow the SMILES beside them. Groups on a side chain read outwards from the residue. *: point of attachment. TTDA(Palmitoyl) = CCCCCCCCCCCCCCCC(=O)NCCCOCCOCCOCCCN*; Suc = O=C(CCC(=O)[*:2])[*:1]

System: urinary metabolites
Assay: NMR-based metabolomics of urine of DIO mice
Format: in vivo, C57BL/6 mice
Design: key to DMA, Mean / DMG, Mean / MA, Mean / TMA, Mean / acetate, Mean / allantoin, Mean / carnitine, Mean / choline, Mean / cis-aconitate, Mean / creatine+creatinine, Mean / creatine, Mean / creatinine, Mean / ethanolamine, Mean / formate, Mean / galactose, Mean / glucose, Mean / glycine, Mean / lactate, Mean / succinate, Mean / vinylacetylglycine, Mean: TSA-normalized intensity of the metabolite's representative NMR signal
Description: Urine samples for NMR-based metabolomics were collected prior to the start of the interventions and at the end of the experiment. For overnight urine collection (from 5 pm to 8 am), the mice were housed in individual metabolic cages (Tecniplast, Buguggiate, Italy) without access to food. Samples were collected with the addition of NaN3 and stored at -80°C until NMR analysis.
The urine samples were thawed at room temperature and centrifuged at 13 684 x g for 5 min prior to the NMR experiments. A 200-μl aliquot of supernatant was diluted with 340 μl of H2O mixed with 60 μl of phosphate buffer (1.5 M KH2PO4 in D2O containing 2 mM NaN3 and 0.1% trimethylsilyl propionic acid (TSP), pH 7.4) and transferred to a 5-mm NMR tube. The NMR data were acquired with a 600 MHz Bruker Avance III spectrometer (Bruker BioSpin, Rheinstetten, Germany) equipped with a 5-mm TCI cryogenic probe head. All of the experiments were performed at 300 K. Automatic tuning, matching, shimming and adjusting of the 90° pulse length were performed for each sample.
As mouse urine naturally contains urinary proteins, the NMR spectra were acquired using a Carr-Purcell-Meiboom-Gill (CPMG) pulse sequence with water presaturation (Bruker pulse sequence cpmgpr1d) to eliminate the strong protein background. […] For better metabolite identification, a short J-resolved experiment with presaturation (NS = 2, SW = 16 ppm, TD = 8k, number of increments = 40, SW = 78.125 Hz in the indirect dimension, and relaxation delay = 2 s) was executed for all samples. Additional two-dimensional ^1H-^1H correlation spectroscopy (COSY) and ^1H-^13C heteronuclear multiple-quantum correlation (HMQC) experiments (Bruker pulse sequences cosygpprqf and hmqcphpr) were performed for selected samples.
The acquired data were processed using Topspin 3.2 software (Bruker BioSpin, Rheinstetten, Germany). Line broadening of 0.3 Hz was applied on free induction decays (FIDs) prior to Fourier transformation. The spectra were automatically phased, baseline corrected and referenced to the signal of TSP (0.00 ppm).
The assignment of individual metabolites was achieved by comparing the proton spectra with the spectra of pure metabolites using Chenomx NMR Suite 7.6 (Chenomx Inc., Edmonton, AB, Canada), the HMDB database and previously published metabolomic data. The identification of metabolites was supported through J-resolved and COSY experiments and, if possible, confirmed using carbon chemical shifts extracted from the HMQC spectra.
For quantitation of individual metabolites, the CPMG spectra were uniformly binned in the range of 0.10–10.00 ppm to 0.01-ppm intervals using AMIX software (Bruker BioSpin, Rheinstetten, Germany). This procedure reduced the dimensionality of the data, eliminated chemical shift variations and thus simplified the reproducible automatic quantification. Regions corresponding to water (4.60–4.90 ppm) and urea (5.60–6.00 ppm) were removed prior to analysis. As the dilutions of the original urine samples differed (due to the differences in water intake during urine collection), all of the spectra were normalized to the total spectral area (TSA). For each identified metabolite, one representative signal was chosen and then quantified as the sum of appropriate adjacent 0.01-ppm bins to cover the whole signal width. The metabolite concentration was expressed as the TSA-normalized intensity of the respective signal. For selection of an appropriate statistical method (parametric or non-parametric) the Lilliefors test of normality was performed. […] Metabolite alterations with a P < 0.05 were considered statistically significant. Statistical analysis was performed using Matlab software (“MATLAB version 8.6 (R2015b). Natick, Massachusetts: The MathWorks Inc., 2015.,” n.d.). […]

[1] = urine NMR signal, DIO mice, group mean
[2] = urine of DIO mice, NMR metabolomics, difference of analog mean vs saline mean

Question: How did the “2-OG (2.45 ppm), Mean” value [1] turn out when `CCCCCCCCCCCCCCCC(=O)NCCCOCCOCCOCCCNC(=O)CCC(=O)NCCCC[C@H](NC(=O)[C@@H](NC(=O)[C@H](CCC(=O)O)NC(=O)[C@H](CCSC)NC(=O)[C@H](CO)NC(=O)[C@H](Cc1c[nH]cn1)NC(=O)[C@H](CCCNC(=N)N)NC(=O)[C@H](Cc1c[nH]cn1)NC(=O)[C@@H](NC(=O)[C@H](CCCNC(=N)N)NC(=O)[C@H](CO)NC(=O)CCC(=O)NCCCOCCOCCOCCCNC(=O)CCCCCCCCCCCCCCC)[C@@H](C)O)[C@@H](C)CC)C(=O)N[C@H](C(=O)N1CCC[C@H]1C(=O)N[C@@H](CC(=O)O)C(=O)N[C@H](C(=O)N[C@@H](CC(N)=O)C(=O)N1CCC[C@H]1C(=O)N[C@@H](C)C(=O)N[C@@H](Cc1c[nH]c2ccccc12)C(=O)N[C@@H](Cc1ccc(O)cc1)C(=O)N[C@@H](C)C(=O)N[C@@H](CO)C(=O)N[C@@H](CCCNC(=N)N)C(=O)NCC(=O)N[C@H](C(=O)N[C@@H](CCCNC(=N)N)C(=O)N1CCC[C@H]1C(=O)N[C@H](C(=O)NCC(=O)N[C@@H](CCCNC(=N)N)C(=O)N[C@@H](Cc1ccccc1)C(N)=O)C(C)C)[C@@H](C)CC)[C@@H](C)CC)[C@@H](C)O` [analog 3] ({TTDA(Palmitoyl)-Suc}-SRTHRHSMEIK([Suc-TTDA(Palmitoyl)])TPDINPAWYASRGIRPVGRF-NH2) was run?
Answer: 11.878

Question: What about the “2-OG (3.01 ppm), Mean” value [1] of the same compound?
Answer: 10.469

Question: And the “2-PY (8.33 ppm), Mean” value [1]?
Answer: 1.098

Question: What about the “3-indoxylsulfate (7.51 ppm), Mean” value [1] of the same compound?
Answer: 1.344

Question: And the “3-indoxylsulfate (7.71 ppm), Mean” value [1]?
Answer: 0.810

Question: And the “4-PY (7.97 ppm), Mean” value [1]?
Answer: 2.017

Question: And the “4-PY (8.55 ppm), Mean” value [1]?
Answer: 0.633

Question: What about the “DMA, Mean” value [1] of the same compound?
Answer: 5.618

Question: And the “DMG, Mean” value [1]?
Answer: 1.853

Question: What about the “MA, Mean” value [1] of the same compound?
Answer: 3.016

Question: What about the “MNA (8.90 ppm), Mean” value [1] of the same compound?
Answer: 0.487

Question: And the “MNA (8.97 ppm), Mean” value [1]?
Answer: 0.470

Question: And the “MNA (9.265 ppm), Mean” value [1]?
Answer: 0.490

Question: What about the “MNA-Nox (7.75 ppm), Mean” value [1] of the same compound?
Answer: 0.972

Question: And the “MNA-Nox (8.13 ppm), Mean” value [1]?
Answer: 0.792

Question: And the “MNA-Nox (8.49 ppm), Mean” value [1]?
Answer: 0.511

Question: What about the “MNA-Nox (8.75 ppm), Mean” value [1] of the same compound?
Answer: 0.485

Question: And the “N-carbamoylalanine (2.38 ppm), Mean” value [1]?
Answer: 11.854

Question: And the “N-carbamoylalanine (3.31 ppm), Mean” value [1]?
Answer: 9.499

Question: What about the “N-isovalerylglycine + oxovalerate (0.92 ppm), Mean” value [1] of the same compound?
Answer: 16.056

Question: And the “TMA, Mean” value [1]?
Answer: 11.780

Question: What about the “acetate, Mean” value [1] of the same compound?
Answer: 3.429

Question: And the “allantoin, Mean” value [1]?
Answer: 22.447

Question: What about the “carnitine, Mean” value [1] of the same compound?
Answer: 6.067

Question: And the “choline, Mean” value [1]?
Answer: 1.970

Question: And the “cis-aconitate, Mean” value [1]?
Answer: 8.481

Question: What about the “citrate (2.55 ppm), Mean” value [1] of the same compound?
Answer: 29.434

Question: What about the “citrate (2.69 ppm), Mean” value [1] of the same compound?
Answer: 26.220

Question: And the “creatine+creatinine, Mean” value [1]?
Answer: 24.904

Question: What about the “creatine, Mean” value [1] of the same compound?
Answer: 7.343

Question: What about the “creatinine, Mean” value [1] of the same compound?
Answer: 11.686

Question: And the “ethanolamine, Mean” value [1]?
Answer: 8.370

Question: And the “formate, Mean” value [1]?
Answer: 0.199

Question: What about the “fumarate, Mean” value [1] of the same compound?
Answer: 0.151

Question: And the “galactose, Mean” value [1]?
Answer: 0.578

Question: And the “glucose, Mean” value [1]?
Answer: 3.207

Question: What about the “glycine, Mean” value [1] of the same compound?
Answer: 5.874

Question: What about the “hexanoylglycine + acids (0.88 ppm), Mean” value [1] of the same compound?
Answer: 15.361

Question: And the “hippurate (7.55 ppm), Mean” value [1]?
Answer: 3.987

Question: What about the “hippurate (7.64 ppm), Mean” value [1] of the same compound?
Answer: 2.057

Question: What about the “hippurate (7.84 ppm), Mean” value [1] of the same compound?
Answer: 4.311

Question: And the “lactate, Mean” value [1]?
Answer: 6.853

Question: What about the “multiplet acids (1.6 ppm), Mean” value [1] of the same compound?
Answer: 12.521

Question: And the “putrescin, Mean” value [1]?
Answer: 8.726

Question: What about the “succinate, Mean” value [1] of the same compound?
Answer: 9.267

Question: What about the “taurine (3.27 ppm), Mean” value [1] of the same compound?
Answer: 24.146

Question: And the “taurine (3.43 ppm), Mean” value [1]?
Answer: 20.508

Question: And the “trigonelline (8.84 ppm), Mean” value [1]?
Answer: 0.263

Question: And the “trigonelline (9.13 ppm), Mean” value [1]?
Answer: 0.106

Question: What about the “vinylacetylglycine, Mean” value [1] of the same compound?
Answer: 3.527

Question: And the “2-OG (2.45 ppm), Saline/analog %” value [2]?
Answer: 0.010%

Question: What about the “2-OG (3.01 ppm), Saline/analog %” value [2] of the same compound?
Answer: 0.022%

Question: What about the “2-PY (8.33 ppm), Saline/analog %” value [2] of the same compound?
Answer: -0.056%

Question: What about the “3-indoxylsulfate (7.51 ppm), Saline/analog %” value [2] of the same compound?
Answer: 0.032%

Question: And the “3-indoxylsulfate (7.71 ppm), Saline/analog %” value [2]?
Answer: 0.052%

Question: What about the “4-PY (7.97 ppm), Saline/analog %” value [2] of the same compound?
Answer: 0.115%

Question: What about the “4-PY (8.55 ppm), Saline/analog %” value [2] of the same compound?
Answer: 0.091%

Question: And the “DMA, Saline/analog %” value [2]?
Answer: 0.119%

Question: And the “N-carbamoylalanine (2.38 ppm), Saline/analog %” value [2]?
Answer: 0.101%

Question: What about the “N-carbamoylalanine (3.31 ppm), Saline/analog %” value [2] of the same compound?
Answer: 0.00116%

Question: What about the “N-isovalerylglycine + oxovalerate (0.92 ppm), Saline/analog %” value [2] of the same compound?
Answer: 0.108%

Question: What about the “TMA, Saline/analog %” value [2] of the same compound?
Answer: -0.031%

Question: What about the “acetate, Saline/analog %” value [2] of the same compound?
Answer: -0.087%

Question: And the “allantoin, Saline/analog %” value [2]?
Answer: 0.112%

Question: And the “carnitine, Saline/analog %” value [2]?
Answer: 0.019%

Question: What about the “choline, Saline/analog %” value [2] of the same compound?
Answer: -0.000203%

Question: What about the “cis-aconitate, Saline/analog %” value [2] of the same compound?
Answer: -0.045%

Question: What about the “citrate (2.55 ppm), Saline/analog %” value [2] of the same compound?
Answer: -0.096%

Question: And the “citrate (2.69 ppm), Saline/analog %” value [2]?
Answer: -0.120%

Question: What about the “creatine+creatinine, Saline/analog %” value [2] of the same compound?
Answer: 0.092%
